Source: patent US7759313B2, “Induction method for cell differentiation” (Obschetstvo S Ogranichennoi Otvetstvennostiyu …, priority 2002, dated 2010)
Several values for one entry are separate records, joined by “and”; a condition that tells them apart may be missing. Equal entries are not always repeated. Where two headings read alike, the source gives them in different places.

Experiments:
[1] = test system: human melanoma Mel-6; test: Inoculated human melanoma Mel-6 growth dynamics in nude mice; format: in vivo
Protocol: The study was conducted on 10-12 week old thymus free “nude” female Balb/C mice weighting 20-22 grams (breeding of the RCRC named after N. N. Blokhin of the RAMS). The human melanoma strain Mel-6 earlier obtained from primary clinical material was taken from the bank of tumor strains of the RCRC of the RAMS for transplantation to thymus free mice.
Dicarbamine at the single doses 1.5 mg/kg and 4.5 mg/kg was p.o. administered daily to two mice groups for 3 weeks from the moment of the tumor development (from day 15 to day 36 from the tumor transplantation).
Measurement of the tumor was done at days 18, 25, 33, 39, 46 and 53 from the transplantation. The effect of Dicarbamine was assessed on the basis of the tumor growth dynamics for 8 weeks in multiple measurements of tumor volumes “V” according to the formula: […]
wherein L is length in mm, s is width in mm; and h is height in mm.
The ratio between volumes of tumors Vt/Vt−1 expressed as a percentage was then calculated and statistically processed according to the Student's method to calculate statistically significant difference.

[2] = test system: human M-5 melanoma cells; test: Initial rate of cell proliferation (IRCP), M-5 cells; format: cell-based
Protocol: The study was conducted on two continuous cell cultures growing in the form of a monolayer in a tissue culture (on murine B-16 melanoma cells and human M-5 melanoma cells). […] Dicarbamine (D) was transferred into stock solution (1.000 μM), sterilized through filters with 0.22 μm pore diameter and then diluted to concentrations 0.01 and 1.0 μM.
The effect of preparations on cells was assessed on the basis of initial rate of cell proliferation (IRCP). This index (IRCP), which is usually called colony rate growth, was determined by numbering the number of cells in micro colonies during the first days following affection in “test” (with preparations) and “control” (without preparations) dishes, by analyzing 50 colonies in each of them. Each “point” included […] three Petri dishes with growing cell colonies in adding specific concentrations of preparations under study. Growth rate of colonies (in %) was calculated according to the formula: […]
Cell numbers in micro colonies were calculated for every “point”. Toxicity of preparations in the selected range of concentrations was judged by cell survival, which was determined by the ratio between numbers of the colonies grown in “test” and “control” dishes.

[3] = format: in vivo, mice
Source text: Two groups of mice are used.

[4] = test system: Friend erythroblastosis; test: Friend erythroblastosis, electronic microscopy of cell types; format: in vivo, mice
Protocol: Friend erythroblastosis which was inoculated subcutaneously to DBA2 female mice via spleen cells was investigated.
Group 2—Reaferon at dose 100 thousand IU/kg was administered daily s.c. from day 3 to day 7 after inoculation;
Group 3—Dicarbamine at a single dose 4.5 mg/kg was administered p.o. from day 3 to day 7 after inoculation;
Group 4—Dicarbamine and Reaferon were administered simultaneously according to a similar scheme.
Material for light microscopy was taken from sacrificed animals at days 3, 7 and 14 after termination of therapy or administration of a physiological saline. Material for electronic microscopy was taken at days 7 and 14.
For electronic microscopy, tumor pieces were fixed in a 2.5% glutaraldehyde solution and 1% osmium tetroxide and embedded in EPON-812. Semi-thin and ultra-thin slices were prepared on the LKB-III ultratome (Sweden). The obtained semi-thin slices were stained with Toluidine blue and examined through the light microscope. Ultra-thin slices were additionally stained with uranyl acetate and lead citrate; the slices examined and photographed in the JEOL 1200 EX-II electronic microscope (Japan).
The percentage of cells with different types of differentiation (blast cells, lymphocytes and granular leukocytes) was calculated during electronic microscopy for quantitative assessment.

[5] = test system: human M-6 melanoma; test: Human M-6 melanoma growth dynamics, Dicarbamine combined with chemotherapy; format: in vivo
Protocol: The study was conducted according to the technique described in Example 3. Dicarbamine was administered daily p.o. at the single dose 4.5 mg/kg for 3 weeks from the moment of tumor appearance (from day 15 to day 36). In the groups of combined treatment Dicarbamine was also administered daily at the single dose 4.5 mg/kg for 3 weeks (days 15-36) in combination with a single administration of anti-tumor cytostatic agents Cysplatin at dose 6 mg/kg i.v. (day 25) and Aranoza at dose 40 mg/kg i.p. (day 27). Cytostatic therapy with was commenced when the average tumor volume reached 200±62 mm^3. At days 18, 25, 33, 39, 46 and 53 from the transplantation tumor volumes were measured and the value Vt/Vt−1 was calculated and expressed as a percentage.

## O=C(O)CCCC(=O)NCCc1c[nH]cn1 [Dicarbamine]
[1]; 1.5 mg/kg p.o. daily days 15-36, 18 day after inoculation
  V (tumor volume) M + m: 21.8 + 12.8
[1]; 1.5 mg/kg, 18 day
  percent change in tumor volume Vt/Vt−1: 100%
[1]; 1.5 mg/kg, 25 day
  V (tumor volume) M + m: 77.5 + 46.4
  percent change in tumor volume Vt/Vt−1: 302.0 ± 186.0%
[1]; 1.5 mg/kg, 33 day
  V (tumor volume) M + m: 342.0 + 142.0
  percent change in tumor volume Vt/Vt−1: 428.0 ± 313.1%
[1]; 1.5 mg/kg, 39 day
  V (tumor volume) M + m: 435.0 + 187.0
  percent change in tumor volume Vt/Vt−1: 23.2 ± 22.1%
[1]; 1.5 mg/kg, 46 day
  V (tumor volume) M + m: 662.0 + 417.0
  percent change in tumor volume Vt/Vt−1: 23.9 + 31.0%
[1]; 1.5 mg/kg, 53 day
  V (tumor volume) M + m: 783.0 + 423.0
  percent change in tumor volume Vt/Vt−1: 18.6 + 54.0%
[1]; 4.5 mg/kg p.o. daily days 15-36, 18 day
  V (tumor volume) M + m: 91.9 + 54.4
[1]; 4.5 mg/kg, 18 day
  percent change in tumor volume Vt/Vt−1: 100%
[1]; 4.5 mg/kg, 25 day
  V (tumor volume) M + m: 266.0 + 198.0
  percent change in tumor volume Vt/Vt−1: 166.0±93.0%
[1]; 4.5 mg/kg, 33 day
  V (tumor volume) M + m: 852.0 + 495.0
  percent change in tumor volume Vt/Vt−1: 276.0 ± 104.0%
[1]; 4.5 mg/kg, 39 day
  V (tumor volume) M + m: 1129.0 + 600.0
  percent change in tumor volume Vt/Vt−1: 39.8 ± 27.3%
[1]; 4.5 mg/kg, 46 day
  V (tumor volume) M + m: 1354.0 + 735.0
  percent change in tumor volume Vt/Vt−1: 19.6 ± 17.5%
[1]; 4.5 mg/kg, 53 day
  V (tumor volume) M + m: 1550.0 + 780.0
  percent change in tumor volume Vt/Vt−1: 4.2 + 22.5%
[1]; in vivo
  delay in maximum tumor mass gain in comparison with the control: 7 days
[2]; D 0.01 μM, 48 hours
  Initial rate of cell proliferation (% cells/colony relative to the control): 82.4% and 84.2%
[2]; D 0.01 μM, 72 hours
  Initial rate of cell proliferation: 73.6%
[2]; D 0.01 μM, 96 hours
  Initial rate of cell proliferation: 70.2%
[2]; D 1.0 μM, 48 hours
  Initial rate of cell proliferation: 69.0%
[2]; D 1.0 μM, 72 hours
  Initial rate of cell proliferation: 50.0%
[2]; D 1.0 μM, 96 hours
  Initial rate of cell proliferation: 49.1%
[2]; IN 7.0 IU/ml + D 0.01 μM, 48 hours
  Initial rate of cell proliferation: 79.1%
[2]; IN 7.0 IU/ml + D 0.01 μM, 72 hours
  Initial rate of cell proliferation: 49.1%
[2]; IN 7.0 IU/ml + D 0.01 μM, 96 hours
  Initial rate of cell proliferation: 46.9%
[2]; IN 7.0 IU/ml + D 1.0 μM, 48 hours
  Initial rate of cell proliferation: 54.7%
[2]; IN 7.0 IU/ml + D 1.0 μM, 72 hours
  Initial rate of cell proliferation: 36.9%
[2]; IN 7.0 IU/ml + D 1.0 μM, 96 hours
  Initial rate of cell proliferation: 33.3%
[2]; IN 70.0 IU/ml + D 0.01 μM, 48 hours
  Initial rate of cell proliferation: 40.5%
[2]; IN 70.0 IU/ml + D 0.01 μM, 72 hours
  Initial rate of cell proliferation: 34.9%
[2]; IN 70.0 IU/ml + D 0.01 μM, 96 hours
  Initial rate of cell proliferation: 31.0% and 31.7%
[2]; IN 70.0 IU/ml + D 1.0 μM, 48 hours
  Initial rate of cell proliferation: 30.7%
[2]; IN 70.0 IU/ml + D 1.0 μM, 72 hours
  Initial rate of cell proliferation: 24.0% and 24.5%
[2]; IN 70.0 IU/ml + D 1.0 μM, 96 hours
  Initial rate of cell proliferation: 23.9%
[2]; M-5 cells
  toxicity according to the survival index: does not show toxicity
[3]; CPH 200 mg/kg (Dicarbamine group: 0.5 mg/kg 5 days prior and 5 days after), day 3
  Cellularity of bone marrow (number of cells): 14.5 ± 3.43 millions
[3]; day 5 after CPH
  Cellularity of bone marrow (number of cells): 21.55 ± 1.92 millions
[3]; day 7 after CPH
  Cellularity of bone marrow (number of cells): 32.35 ± 3.57 millions
[3]; day 10 after CPH
  Cellularity of bone marrow (number of cells): 33.8 ± 3.85 millions
[3]; day 13 after CPH
  Cellularity of bone marrow (number of cells): 32.6 ± 5.22 millions
[3]; day 17 after CPH
  Cellularity of bone marrow (number of cells): 28.25 ± 3.02 millions
[3]; day 21 after CPH
  Cellularity of bone marrow (number of cells): 30.4 ± 2.75 millions
[4]; Dicarbamine 4.5 mg/kg
  decrease of the quantity of immature tumor cells vs control: 15-20%
  increase of the quantity of lymphocytes vs control: 4 fold
[4]; Dicarbamine + Reaferon
  number of lymphocytes: 18-25%
  quantity of large blast type cells: 70-80%
  quantity of leukocytes (granular): 2-5%
[4]; single agent
  quantity of granulocytes (granular leukocytes): 2-5%
  quantity of lymphocytes (lymphoid cells): 18-25%
[4]; single agent (Dicarbamine 4.5 mg/kg p.o. or Reaferon 100 thousand IU/kg s.c., days 3-7)
  quantity of large blast type cells: 70-80%
[5]; Dicarbamine 4.5 mg/kg p.o. days 15-36 + Cysplatin 6 mg/kg i.v. + Aranoza 40 mg/kg i.p., 25 Day
  Vt/Vt−1, M ± m: 182.0±60.0% and 182.0 + 60.0** %
[5]; Dicarbamine + Cysplatin + Aranoza, 33 Day
  Vt/Vt−1, M ± m: 191.0 + 71.0%
[5]; Dicarbamine + Cysplatin + Aranoza, 39 Day
  Vt/Vt−1, M ± m: 24.5 + 17.4%
[5]; Dicarbamine + Cysplatin + Aranoza, 46 Day
  Vt/Vt−1, M ± m: 28.7 + 9.8%
[5]; Dicarbamine + Cysplatin + Aranoza, 53 Day
  Vt/Vt−1, M ± m: 8.0 + 30.6%
[5]; Dicarbamine alone 4.5/94.5 mg/kg p.o. days 15-36, 25 Day
  Vt/Vt−1, M ± m: 166.0±93.0%
[5]; Dicarbamine alone, 33 Day
  Vt/Vt−1, M ± m: 276.0 ± 104.0%
[5]; Dicarbamine alone, 39 Day
  Vt/Vt−1, M ± m: 39.8 ± 27.3%
[5]; Dicarbamine alone, 46 Day
  Vt/Vt−1, M ± m: 19.6 ± 17.5%
[5]; Dicarbamine alone, 53 Day
  Vt/Vt−1, M ± m: 4.2 + 22.5%
